Results taken from PubChem BioAssay (NCI).
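These data come from cells grown in 96-well plates and exposed to compound for 48 hours at five concentrations. Here, GI50 denotes the concentration required for 50% inhibition of growth. TGI: concentration producing complete growth inhibition.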

Assays:
Assay in all cases: NCI tumour cell line growth inhibition, 48 h
ACHN renal = test system: ACHN renal
HL-60(TB) leukemia = test system: HL-60(TB) leukemia
HOP-62 NSCLC = test system: HOP-62 NSCLC
KM12 colon = test system: KM12 colon
MOLT-4 leukemia = test system: MOLT-4 leukemia
NCI-H460 lung = test system: NCI-H460 lung
NCI-H522 lung = test system: NCI-H522 lung
OVCAR-5 ovarian = test system: OVCAR-5 ovarian
RXF 393 renal = test system: RXF 393 renal
SK-MEL-2 melanoma = test system: SK-MEL-2 melanoma
SNB-19 CNS = test system: SNB-19 CNS
SW-620 colon = test system: SW-620 colon
UACC-257 melanoma = test system: UACC-257 melanoma
UO-31 renal = test system: UO-31 renal
COLO 205 colon = test system: COLO 205 colon
HCC-2998 colon = test system: HCC-2998 colon
NCI/ADR-RES ovarian = test system: NCI/ADR-RES ovarian
SK-OV-3 ovarian = test system: SK-OV-3 ovarian

SMILES	TGI (ACHN renal) [µM]	TGI (HL-60(TB) leukemia) [µM]	TGI (HOP-62 NSCLC) [µM]	TGI (KM12 colon) [µM]	TGI (MOLT-4 leukemia) [µM]	TGI (NCI-H460 lung) [µM]	TGI (NCI-H522 lung) [µM]	TGI (OVCAR-5 ovarian) [µM]	TGI (RXF 393 renal) [µM]	TGI (SK-MEL-2 melanoma) [µM]	TGI (SNB-19 CNS) [µM]	TGI (SW-620 colon) [µM]	TGI (UACC-257 melanoma) [µM]	TGI (UO-31 renal) [µM]	TGI (COLO 205 colon) [µM]	TGI (HCC-2998 colon) [µM]	TGI (NCI/ADR-RES ovarian) [µM]	TGI (SK-OV-3 ovarian) [µM]	GI50 (COLO 205 colon) [µM]	GI50 (NCI-H522 lung) [µM]
CC(=O)Oc1ccccc1	> 100	> 100	> 100	> 100	> 100	> 100	> 100	> 100	> 100	> 100	> 100	> 100	> 100	> 100	–	–	–	–	–	–
CC(=O)Nc1ccc2c(c1)/C(=C\c1ccc([N+](C)(C)C)cc1)c1ccccc1-2	> 100	59.5	> 100	> 100	> 100	> 100	> 100	80.4	> 100	–	> 100	> 100	79.1	> 100	35.6	> 100	> 100	> 100	–	–
COc1ccccc1/C=C/c1ccnc2ccccc12	32.8	26	29.6	25.3	28	28.9	–	32.4	–	30.1	28.2	26.9	29.5	–	33.2	31.3	32.4	29.7	–	–
Cc1c2ccccc2c(C2C3C(=O)N(c4ccc(Br)cc4)C(=O)C3ON2C(C(N)=O)c2ccccc2)c2ccccc12 (stereo unspecified)	17.3	14	36.1	22.1	> 100	22.2	9	23.2	37.3	30.3	22.6	> 100	62.4	34.6	3.33	26.6	41.4	46	–	–
Cc1ccc(O)c(Cc2nc3ccccc3nc2-c2cccc(Cl)c2)c1	> 100	> 100	> 100	> 100	51.4	> 100	79	> 100	> 100	> 100	63.4	> 100	> 100	> 100	> 100	> 100	> 100	> 100	–	–
COc1cc(C(=O)NC2CCc3cc(OC)c(OC)c(OC)c3-c3ccc(OC)c(=O)cc32)cc(OC)c1OC (stereo unspecified)	> 100	0.262	> 100	0.801	43.2	15.3	0.0544	> 100	24	> 24.1	> 100	> 100	59.3	> 98	0.23	1.16	70.3	20.9	–	–
c1ccc2c(CSCc3cccc4ccccc34)cccc2c1	> 100	–	> 100	> 100	> 100	> 100	> 100	> 100	> 100	> 100	> 100	> 100	> 100	> 100	–	> 100	> 100	–	–	–
O=C(COc1ccc(Cl)c(Cl)c1)Nc1ccc[n+](Cc2ccc(S(=O)(=O)F)c(Cl)c2)c1	> 100	> 100	> 100	> 100	> 100	> 100	> 100	> 100	> 100	> 100	> 100	> 100	> 100	> 100	> 100	–	> 100	> 100	–	–
COc1cc2c(c(OC)c1OC)-c1ccc(OC)c(=O)cc1C(NC(=O)COc1ccccc1)CC2 (stereo unspecified)	> 100	–	> 100	< 0.011	53	> 10.6	< 0.01	> 100	> 71.5	> 15.8	> 100	> 95.2	> 100	> 100	< 0.01	1.04	0.4	0.766	–	–
Cc1ccc2c(c1)SC1=Nc3sc4cc(C)ccc4[n+]3CN12	> 100	9.77	54.6	–	–	> 100	11.2	> 100	> 100	17.8	16.9	53.1	12.8	> 100	13.1	6.62	> 100	> 100	–	–
CC(C)(C)[Si](OC1CCOC1=O)(c1ccccc1)c1ccccc1 (stereo unspecified)	99.6	> 100	–	> 10	59	49.3	38	> 100	–	32.5	> 100	> 100	50.4	> 100	> 10	47	–	> 100	–	–
C[C@@H]1C[C@H]2[C@@H]3CCC4=CC(=O)C=C[C@]4(C)[C@@]3(F)[C@@H](O)C[C@]2(C)[C@@]1(O)C(=O)CO	> 100	> 100	> 100	> 100	> 100	–	> 100	> 100	–	> 100	–	> 100	> 100	> 100	> 100	–	–	> 100	–	–
C[n+]1cccc(NC(=O)c2ccc(NC(=O)C34CCC(C(=O)Nc5ccc(C(=O)Nc6ccc[n+](C)c6)cc5)(CC3)CC4)cc2)c1	> 100	9.33	> 100	22.7	> 100	> 100	> 100	> 100	61.5	–	> 100	> 100	> 100	–	–	–	–	–	–	–
CNC(=O)OCc1nc(SC)n(C)c1CO	–	> 100	> 100	> 100	> 100	> 100	> 100	> 100	> 100	> 66.8	> 100	> 100	> 100	> 100	> 100	> 100	> 100	> 100	–	–
C[C@H]1C[C@@H]2[C@H]([C@@H](O)C[C@@]3(C)[C@H]2CC[C@]3(O)C(=O)CO)[C@@]2(C)C=CC(=O)C=C12	> 100	> 100	> 100	> 100	> 100	> 100	> 100	> 100	–	> 100	–	> 100	> 100	> 100	> 100	> 100	–	> 100	–	–
CCCCc1ccc(N=C(N)N)cc1	> 100	73.6	–	36.6	–	61.8	> 100	> 100	–	> 100	> 100	> 100	> 100	> 100	35.4	30.4	> 100	> 100	–	–
COC1/C=C(C)/C=C/C(C)/C=C/C(=O)OC(/C(C)=C/C=C(\C)CNC(=O)[C@H](CO)NC=O)C(C)/C=C/C=C/C(OC)CC/C=C(C)/C=C/C1 (stereo partly specified)	> 1	0.0957	0.109	> 1	> 0.611	> 1	> 1	> 1	> 1	> 0.246	> 1	> 1	> 0.206	> 0.735	> 1	–	> 0.724	> 1	0.0331	0.0362
